Data: patent US10081609B2, “Compounds for inducing proliferation and differentiation of cells, and methods of use thereof” (The Broad Institute, Inc., priority 2013, dated 2018)

Legend:
[1] = system: human primary hepatocytes; assay: High-throughput liver platform, primary screening: hepatocyte proliferation by automated high-content imaging (hepatocyte nuclei numbers); format: cell-based; details: primary screening
Experimental: In order to avoid species-specific differences and cell line mutations, the screen was conducted with human primary hepatocytes. Traditionally, chemical screening on such cells has been hindered by their availability in large quantities as well as their rapid loss of viability and phenotype in vitro. Recent advances in cryopreservation technologies allowed enough primary human cells to be stored for screening; these cells are maintained through co-cultivation with non-parenchymal cells. Co-cultures of primary human hepatocytes with murine embryonic J2-3T3 fibroblasts were recently shown to maintain normal hepatocyte phenotype for weeks. These in vitro platforms consisted of hepatocytes surrounded by a co-planar population of fibroblasts. While sufficient for stabilizing hepatocyte functions in vitro, such platforms may limit normal hepatocyte expansion due to contact inhibition. Thus, for this screen, a sparse population of hepatocytes was co-cultivated on top of a confluent feeder layer of J2-3T3 fibroblasts within 384-well plates (FIG. 1A top). This screening platform stabilized hepatocyte phenotypic functions in vitro (FIG. 1A bottom) and was compatible with two separate high-throughput readouts developed for this screen.
The primary readout detected hepatocyte proliferation via automated high-content imaging. This assay quantified hepatocyte nuclei numbers, using nuclear morphologies to separate the hepatocyte and fibroblast subpopulations that co-exist within the screening platform. When visualized with Hoechst stain, hepatocyte nuclei were smaller and more uniform in texture while fibroblast nuclei were larger and punctated (FIG. 1A bottom). Leveraging this distinction, automated image analyses was developed that utilized machine learning algorithms to classify nuclei types and tabulate hepatocyte nuclei numbers. […] Besides quantifying hepatocyte nuclei that have completed mitosis, the number of nuclei in the process of mitosis were also quantified. Two additional analysis pipelines were built to detect nuclear morphologies consistent with cells undergoing metaphase and anaphase.
FIG. 1B top summarizes the workflow of the screen. Primary screening was done on human primary hepatocytes, preconditioned for seven days by non-parenchymal cells in the screening platform. Upon stabilization in vitro, cultures were treated with the chemical library for 48 hours. All compounds were tested in duplicates, at a single concentration of 15 μM. This single concentration was selected via a pilot screen of ˜2,000 small molecules. All 12,480 small molecules were initially tested on a single donor of cryopreserved hepatocytes (donor a) in order to eliminate noise from donor-to-donor variability. Following compound treatment, media supernatants were collected for functional analyses via ELISA and cultures were fixed in 4% paraformaldehyde for proliferation analyses via imaging.
To identify proliferation hits, three image-based readouts—one each to quantify the number of (1) hepatocyte nuclei in interphase, (2) nuclei in metaphase and (3) nuclei in anaphase—were integrated. z Scores were converted into p values, which were then used to generate ranked lists of compounds based on the efficacy and consistency of effects across the different proliferation readouts. Efficacy was assessed by the product of p values (pprod=pinter×pmeta×pana); consistency was evaluated by the maximum of p values (pmax=max(pinter, pmeta, pana). Compounds were considered proliferation hits if pprod<1×10^−6 and pmax<0.25. Functional hits were selected by an ELISA […]. Compounds with ELISA z>3.0 were eliminated as toxic. 93 compounds met all hit selection criteria, qualifying as Functional Proliferation Hits (FPH); FIG. 1B bottom illustrates the types of compounds that constituted this set of hits.

[2] = system: human primary hepatocytes; assay: Expansion of human primary hepatocytes on growth-arrested J2-3T3 feeder layer in 12-well plates (imaging, cell counting, FACS, biochemical assays); format: cell-based; details: 20 μM on days 1 and 5, 7 days culture
Experimental: Culture media were collected and frozen at −20° C. until analysis. Albumin content was measured through sandwich ELISA assays (MP Biomedicals, Fitzgerald, Bethyl Laboratories) using horseradish peroxidase detection and 3,3′,5,5′-tetramethylbenzidine (TMB, Fitzgerald Industries) as a substrate. Urea concentration was determined colorimetrically using diacetylmonoxime with acid and heat (Stanbio Labs). To quantify CYP450 activity, at 48 hours after small molecule exposure, cultures were incubated with substrates (coumarin from Sigma for CYP2A6, luciferin-IPA from Promega for CYP3A4) for 4 hours at 37° C. Incubation medium was collected and metabolite concentration quantified via luminescence, or fluorescence after hydrolization of potential metabolite conjugates by β-glucuronidase/arylsulfatase (Roche, Ind.).
To characterize the effects of FPH1 and FPH2 outside of the screening platform, human primary hepatocytes were seeded at a density of ˜20,000 cells/cm^2, into standard 12-well tissue culture plates on top of a feeder layer of growth-arrested J2-3T3s. These cells were cultured for 7 days, during which time a single compound/FPH was supplemented into the media on days 1 and 5 at a concentration of 20 μM. Treated hepatocyte colonies increased in size over time, with more hepatocytes populating each colony (FIG. 2D, 2E).
To characterize the degree of proliferation and to obtain a doubling time, cells were counted and fluorescence-activated cell sorting (FACS) was performed (FIG. 2H). For cell counting, FPH-treated cells were trypsinized after seven days in culture. The number of cells was quantified using an automated cell counter. The number of hepatocytes was obtained by subtracting the number of fibroblasts from the total number of cells found in the corresponding co-culture. For FACS analysis, growth arrested J2-3T3s were labeled with CM-DiI prior to initiation of co-culture so that hepatocytes can be identified via negative selection. To enable cell counting during FACS, each sample was supplemented with fluorescent counting beads. […] Over 7 days, FPH1 induced hepatocyte doublings at a rate that is consistent with reported liver regeneration kinetics in vivo.
To assess the phenotype of the treated hepatocytes, imaging, biochemical analyses and gene expression profiling were performed. […] Albumin secretion and urea synthesis, a surrogate marker of nitrogen metabolism, were both stable throughout FPH treatment (FIG. 3A top and middle). Metabolic functions were assessed via examinations of cytochrome P450 (CYP450) activity and canalicular transport. […] Gene expression profiling confirmed that there are no significant differences between FPH-treated and untreated hepatocytes (FIG. 3C).

## Cc1ccc(Cl)cc1N(CC(=O)Nc1c(F)cccc1F)S(C)(=O)=O [FPH2, 2-(N-(5-chloro-2-methylphenyl)methylsulfonamido)-N-(2,6-difluorophenyl)acetamide]
[1]
  number of nuclei undergoing mitosis: elevated
[1]; 15 μM, 48 hours
  increase in hepatocyte nuclei numbers during primary screening: 1.5 ×
[2]
  Ki67 staining / number of Ki67-positive nuclei: more elevated
  increase in the area of albumin-positive colonies: ≤ 3.5 fold
